One experiment deals with TNFα. Put plainly: IRAK4 Monocyte TNFα Cell Based Assay (LPS-stimulated, TR-FRET TNFα detection). Further details: species or system human. The note with it: Homo sapiens, Monocyte, human monocytes, LPS-stimulated; Table 2 second part (compounds 33-343); read-out: EC50 MONO TNF HTRF. The procedure, abridged: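 Monocytes (5,000 cells/well) treated with compound (0.1% DMSO) for 1 hour at 37° C, then stimulated with 50 pg/ml LPS for 4 hours. TNFα in medium quantified by TR-FRET two-antibody detection after overnight room-temperature incubation. Percent of control calculated against unstimulated (0%) and LPS-stimulated (100%) cells.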
On the technique in general: TR-FRET usually uses a lanthanide donor and a delayed reading to cut background.

The target in a further experiment is T1, IRAK4 enzyme (Homo sapiens, UniProt Q9NWZ3).
T1 construct: purchased Carna Biosciences, Chuo-ku, Kobe, Japan
T1 sequence (Q9NWZ3 1-460): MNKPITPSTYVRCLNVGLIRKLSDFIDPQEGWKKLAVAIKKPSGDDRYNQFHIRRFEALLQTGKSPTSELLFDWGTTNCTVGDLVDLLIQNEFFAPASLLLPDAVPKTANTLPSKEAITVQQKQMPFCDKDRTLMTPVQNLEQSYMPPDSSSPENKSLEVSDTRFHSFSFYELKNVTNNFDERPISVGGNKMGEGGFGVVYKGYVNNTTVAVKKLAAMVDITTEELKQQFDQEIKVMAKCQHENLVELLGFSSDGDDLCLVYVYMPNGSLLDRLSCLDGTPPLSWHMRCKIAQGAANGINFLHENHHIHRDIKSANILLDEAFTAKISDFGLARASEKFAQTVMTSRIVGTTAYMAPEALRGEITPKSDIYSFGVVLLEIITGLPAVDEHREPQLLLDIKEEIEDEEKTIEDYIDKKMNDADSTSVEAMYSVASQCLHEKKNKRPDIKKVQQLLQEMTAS
Briefly: IRAK4 Biochemical Assay (TR-FRET, STK1 KinEASE). The settings on record: 500 μM ATP, Table 2 second part (compounds 33-343), read-out: IC50 IRAK4-HTBS. An outline of the steps: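 Human IRAK4 (0.75 nM) preincubated 15 min with compound and 2 μM STK1 peptide, then reacted 120 min at room temperature with 500 μM ATP in HEPES pH 7.0 buffer with MgCl2 and DTT. EDTA stop with Cryptate anti-phosphopeptide antibody and tracer, 60 min; TR-FRET read as 665/615 nm ratio.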

Take `CC(C)Nc1cc(-c2ccc3cc(C#N)cnn23)ncc1-c1nnc(N2C[C@H]3CC[C@@H](C2)[C@@H]3NC(=O)C2CCN(C)CC2)s1` [Example 100, N-((1R,5S,8s)-3-(5-(6-(3-cyanopyrrolo[1,2-b]pyridazin-7-yl)-4-(isopropylamino)pyridin-3-yl)-1,3,4-thiadiazol-2-yl)-3-azabicyclo[3.2.1]octan-8-yl)-1-methylpiperidine-4-carboxamide]: in the experiment on TNFα, the EC50 was determined as 2.1 nM. The IC50 at IRAK4 enzyme stood at 0.8 nM.

As for `CC(C)(O)C(=O)N[C@@H]1[C@@H]2CC[C@H]1CN(c1nnc(-c3cnc(-c4ccc5cc(C#N)cnn45)cc3NC3CCOCC3)s1)C2` [Example 101, N-((1R,5S,8s)-3-(5-(6-(3-cyanopyrrolo[1,2-b]pyridazin-7-yl)-4-((tetrahydro-2H-pyran-4-yl)amino)pyridin-3-yl)-1,3,4-thiadiazol-2-yl)-3-azabicyclo[3.2.1]octan-8-yl)-2-hydroxy-2-methylpropanamide], the EC50 with TNFα worked out at 1.2 nM. Besides, the IC50 at IRAK4 enzyme worked out at 0.89 nM.

Regarding `CC(C)Nc1cc(-c2ccc3cc(C#N)cnn23)ncc1-c1nnc(N2C[C@H]3CC[C@@H](C2)[C@@H]3NC(=O)C(=O)N=S(C)(C)=O)s1` [Example 103, N1-((1R,5S,8s)-3-(5-(6-(3-cyanopyrrolo[1,2-b]pyridazin-7-yl)-4-(isopropylamino)pyridin-3-yl)-1,3,4-thiadiazol-2-yl)-3-azabicyclo[3.2.1]octan-8-yl)-N2-(dimethyl(oxo)-16-sulfanylidene)oxalamide], the EC50 with TNFα turned out to be 1.4 nM. Besides, on IRAK4 enzyme, the IC50 came out at 0.51 nM.

Consider `COC(=O)N1CCN(C(=O)N[C@@H]2[C@@H]3CC[C@H]2CN(c2nnc(-c4cnc(-c5ccc6cc(C#N)cnn56)cc4NC(C)C)s2)C3)CC1` [Example 105, methyl 4-(((1R,5S,8s)-3-(5-(6-(3-cyanopyrrolo[1,2-b]pyridazin-7-yl)-4-(isopropylamino)pyridin-3-yl)-1,3,4-thiadiazol-2-yl)-3-azabicyclo[3.2.1]octan-8-yl)carbamoyl)piperazine-1-carboxylate], for which the EC50 in the experiment on TNFα amounted to 4.2 nM. The IC50 at IRAK4 enzyme was found to be 0.98 nM.

Consider `CC(C)Nc1cc(-c2ccc3cc(C#N)cnn23)ncc1-c1nnc(N2C[C@H]3CC[C@@H](C2)[C@@H]3NC(=O)N2CCN(S(C)(=O)=O)CC2)s1` [Example 106, N-((1R,5S,8s)-3-(5-(6-(3-cyanopyrrolo[1,2-b]pyridazin-7-yl)-4-(isopropylamino)pyridin-3-yl)-1,3,4-thiadiazol-2-yl)-3-azabicyclo[3.2.1]octan-8-yl)-4-(methylsulfonyl)piperazine-1-carboxamide], for which the EC50 in the experiment on TNFα came to 2.6 nM. The IC50 at IRAK4 enzyme was found to be 1.09 nM.

`CC(C)Nc1cc(-c2ccc3cc(C#N)cnn23)ncc1-c1nnc([C@H]2CC[C@H](NC(=O)C3CC3)CC2)s1` [Example 125, N-((1r,4r)-4-(5-(6-(3-cyanopyrrolo[1,2-b]pyridazin-7-yl)-4-(isopropylamino)pyridin-3-yl)-1,3,4-thiadiazol-2-yl)cyclohexyl)cyclopropanecarboxamide]: the EC50 in the experiment with TNFα stood at 5.4 nM. Besides, the IC50 at IRAK4 enzyme was 0.25 nM.

With `COC(=O)N[C@H]1CC[C@H](c2nnc(-c3cnc(-c4ccc5cc(C#N)cnn45)cc3NC(C)C)s2)CC1` [Example 126, methyl ((1r,4r)-4-(5-(6-(3-cyanopyrrolo[1,2-b]pyridazin-7-yl)-4-(isopropylamino)pyridin-3-yl)-1,3,4-thiadiazol-2-yl)cyclohexyl)carbamate], the EC50 in the experiment on TNFα was found to be 26.2 nM. Moreover, the IC50 at IRAK4 enzyme came out at 0.89 nM.

In the case of `COC(=O)NC[C@H]1C[C@H](Nc2cc(-c3ccc4cc(C#N)cnn34)ncc2-c2nnc([C@H]3CC[C@H](NC(=O)C4CC4)CC3)s2)C1` [Example 134, methyl (((1R,3r)-3-((2-(3-cyanopyrrolo[1,2-b]pyridazin-7-yl)-5-(5-((1r,4R)-4-(cyclopropanecarboxamido)cyclohexyl)-1,3,4-thiadiazol-2-yl)pyridin-4-yl)amino)cyclobutyl)methyl)carbamate], the concentration for a half-maximal effect (EC50) in the experiment with TNFα was found to be 6.9 nM. Also, at IRAK4 enzyme, the IC50 was 0.94 nM.

For the molecule `N#Cc1cnn2c(-c3cc(NC4COC4)c(-c4nnc([C@H]5CC[C@H](NC(=O)C6CC6)CC5)s4)cn3)ccc2c1` [Example 135, N-((1r,4r)-4-(5-(6-(3-cyanopyrrolo[1,2-b]pyridazin-7-yl)-4-(oxetan-3-ylamino)pyridin-3-yl)-1,3,4-thiadiazol-2-yl)cyclohexyl)cyclopropanecarboxamide], the EC50 in the experiment on TNFα came out at 10.5 nM. Also, the IC50 on IRAK4 enzyme turned out to be 0.52 nM.

Take `CC(C)Nc1cc(-c2ccc3cc(C#N)cnn23)ncc1-c1nnc([C@H]2CC[C@H](NC(=O)N3CCOCC3)CC2)s1` [Example 139, N-((1r,4r)-4-(5-(6-(3-cyanopyrrolo[1,2-b]pyridazin-7-yl)-4-(isopropylamino)pyridin-3-yl)-1,3,4-thiadiazol-2-yl)cyclohexyl)morpholine-4-carboxamide]: in the experiment on TNFα, the EC50 was 5.9 nM. In addition, at IRAK4 enzyme, the IC50 was 0.65 nM.

For `CNC(=O)N[C@H]1CC[C@H](c2nnc(-c3cnc(-c4ccc5cc(C#N)cnn45)cc3NC(C)C)s2)CC1` [Example 140, 1-((1r,4r)-4-(5-(6-(3-cyanopyrrolo[1,2-b]pyridazin-7-yl)-4-(isopropylamino)pyridin-3-yl)-1,3,4-thiadiazol-2-yl)cyclohexyl)-3-mcthylurea], in the experiment with TNFα, the EC50 amounted to 6.4 nM. In addition, on IRAK4 enzyme, the IC50 was determined as 0.84 nM.

In the case of `N#Cc1cnn2c(-c3cc(NC4COC4)c(-c4nnc([C@H]5CC[C@H](NC(=O)N6CCOCC6)CC5)s4)cn3)ccc2c1` [Example 142, N-((1r,4r)-4-(5-(6-(3-cyanopyrrolo[1,2-b]pyridazin-7-yl)-4-(oxetan-3-ylamino)pyridin-3-yl)-1,3,4-thiadiazol-2-yl)cyclohexyl)morpholine-4-carboxamide], in the experiment with TNFα, the EC50 came out at 9.2 nM. The IC50 at IRAK4 enzyme was determined as 0.38 nM.

With `COC(=O)NC[C@H]1C[C@H](Nc2cc(-c3ccc4cc(C#N)cnn34)ncc2-c2nnc([C@H]3CC[C@H](NC(=O)N4CCOCC4)CC3)s2)C1` [Example 143, methyl (((1R,3r)-3-((2-(3-cyanopyrrolo[1,2-b]pyridazin-7-yl)-5-(5-((1r,4R)-4-(morpholine-4-carboxamido)cyclohexyl)-1,3,4-thiadiazol-2-yl)pyridin-4-yl)amino)cyclobutyl)methyl)carbamate], the 50% effective concentration (EC50) in the experiment on TNFα is 3.1 nM. The IC50 on IRAK4 enzyme came to 0.34 nM.

Take `CC(=O)N[C@@H]1[C@@H]2CC[C@H]1CN(c1nnc(-c3cnc(-c4ccc5cc(C#N)cnn45)cc3NC3(C)COC3)s1)C2` [Example 144, N-((1R,5S,8s)-3-(5-(6-(3-cyanopyrrolo[1,2-b]pyridazin-7-yl)-4-((3-methyloxetan-3-yl)amino)pyridin-3-yl)-1,3,4-thiadiazol-2-yl)-3-azabicyclo[3.2.1]octan-8-yl)acetamide]: the EC50 with TNFα was 2.3 nM. The IC50 at IRAK4 enzyme stood at 0.63 nM.

For `CC1(Nc2cc(-c3ccc4cc(C#N)cnn34)ncc2-c2nnc(N3C[C@H]4CC[C@@H](C3)[C@H]4O)s2)COC1` [Example 149, 7-(5-(5-((1R,5S,8r)-8-hydroxy-3-azabicyclo[3.2.1]octan-3-yl)-1,3,4-thiadiazol-2-yl)-4-((3-methyloxetan-3-yl)amino)pyridin-2-yl)pyrrolo[1,2-b]pyridazine-3-carbonitrile], the 50% effective concentration (EC50) in the experiment on TNFα turned out to be 4.9 nM. Besides, the IC50 on IRAK4 enzyme is 0.31 nM.

For the molecule `CC(C)Nc1cc(-c2ccc3cc(C#N)cnn23)ncc1-c1nnc(N2C[C@H]3CC[C@@H](C2)[C@@H]3NC(=O)C2CC2)s1` [Example 150, N-((1R,5S,8s)-3-(5-(6-(3-cyanopyrrolo[1,2-b]pyridazin-7-yl)-4-(isopropylamino)pyridin-3-yl)-1,3,4-thiadiazol-2-yl)-3-azabicyclo[3.2.1]octan-8-yl)cyclopropanecarboxamide], in the experiment on TNFα, the EC50 is 5.2 nM. For the same molecule, the IC50 at IRAK4 enzyme came to 0.46 nM.

As to `CC(C)Nc1cc(-c2ccc3cc(C#N)cnn23)ncc1-c1nnc(N2C[C@H]3CC[C@@H](C2)[C@@]3(C)O)s1` [Example 153, 7-(5-(5-((1R,5S,8r)-8-hydroxy-8-methyl-3-azabicyclo[3.2.1]octan-3-yl)-1,3,4-thiadiazol-2-yl)-4-(isopropylamino)pyridin-2-yl)pyrrolo[1,2-b]pyridazine-3-carbonitrile], the EC50 in the experiment on TNFα was found to be 7.2 nM. Also, the IC50 on IRAK4 enzyme stood at 0.91 nM.

Turning to `CC(=O)N[C@]1(C)[C@@H]2CC[C@H]1CN(c1nnc(-c3cnc(-c4ccc5cc(C#N)cnn45)cc3NC(C)C)s1)C2` [Example 155, N-((1R,5S,8s)-3-(5-(6-(3-cyanopyrrolo[1,2-b]pyridazin-7-yl)-4-(isopropylamino)pyridin-3-yl)-1,3,4-thiadiazol-2-yl)-8-methyl-3-azabicyclo[3.2.1]octan-8-yl)acetamide], in the experiment with TNFα, the EC50 was determined as 7.4 nM. Moreover, the IC50 on IRAK4 enzyme came out at 1.52 nM.

A word on the EC50: it is the concentration that produces a half-maximal response. Usually IC50 stands for the concentration that gives 50% inhibition.

The values above are taken from US12060351B2, “Thiadiazole IRAK4 inhibitors” (Gilead Sciences, Inc., priority 2018, dated 2024).
